Source: US12479856B2, “Pharmaceutical compounds for the treatment of complement mediated disorders” (Achillion Pharmaceuticals, Inc., priority 2019, dated 2025)

Biological target: T1, Human complement C1s enzyme (Homo sapiens, UniProt P09871)
T1 construct: purified from human serum, Complement Technology, Inc; purchased Complement Technology, Inc; host or cells: human serum (plasma-derived natural protein)
T1 sequence (P09871 438-688 limits assumed): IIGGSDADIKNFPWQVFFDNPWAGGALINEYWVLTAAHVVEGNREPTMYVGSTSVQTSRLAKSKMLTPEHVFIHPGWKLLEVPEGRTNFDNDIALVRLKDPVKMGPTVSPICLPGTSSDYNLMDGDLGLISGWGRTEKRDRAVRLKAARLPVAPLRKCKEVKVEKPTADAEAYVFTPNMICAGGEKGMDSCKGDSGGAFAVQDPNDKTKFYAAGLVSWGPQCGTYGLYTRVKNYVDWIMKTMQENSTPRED
T1 sequence (P09871 16-437 partner limits assumed): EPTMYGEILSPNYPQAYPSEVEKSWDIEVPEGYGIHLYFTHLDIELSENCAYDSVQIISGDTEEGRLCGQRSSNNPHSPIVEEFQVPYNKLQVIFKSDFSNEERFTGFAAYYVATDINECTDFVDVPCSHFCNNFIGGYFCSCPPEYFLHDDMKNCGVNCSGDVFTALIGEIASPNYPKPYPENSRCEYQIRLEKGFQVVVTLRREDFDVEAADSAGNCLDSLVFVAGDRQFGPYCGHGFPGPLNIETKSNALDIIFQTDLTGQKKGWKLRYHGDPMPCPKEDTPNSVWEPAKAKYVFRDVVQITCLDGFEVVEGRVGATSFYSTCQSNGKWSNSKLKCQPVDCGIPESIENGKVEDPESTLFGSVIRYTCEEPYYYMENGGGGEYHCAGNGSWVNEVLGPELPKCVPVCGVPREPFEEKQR
Assay: Human C1s Enzyme Assay
Assay type: biochemical
Conditions: Table 1; C1s purified from human serum, 1.16 nM; substrate Z-L-Lys-SBzl; read-out: C1s Protease Activity
Protocol: Example 4. Human C1s Enzyme Assay
Human complement C1s enzyme (purified from human serum, Complement Technology, Inc.) at 1.16 nM final concentration is incubated with test compound at various concentrations for 5 min at room temperature in 50 mM Tris, 1 M NaCl, pH 7.5. A synthetic substrate Z-L-Lys-SBzl and DTNB (Ellman's reagent) are added to final concentrations of 100 μM each. Absorbance at 405 nm (A405) is recorded at 30 second intervals for 30 min using a microplate spectrophotometer. IC50 values are calculated by nonlinear regression of complement C1s reaction rates as a function of test compound concentration.

SMILES	IC50 [nM]
N=C(N)NCCC[C@H](NC(=O)[C@@H]1CC2(CN1C(=O)CNC(=O)c1ccc(Oc3ccccc3)cc1)OCCO2)C(N)=O [Compound 22, N-{2-[(8S)-8-{[(1S)-4-Carbamimidamido-1-carbamoylbutyl]carbamoyl}-1,4-dioxa-7-azaspiro[4.4]nonan-7-yl]-2-oxoethyl}-4-phenoxybenzamide]	> 1000
N=C(N)CCCNC(=O)[C@@H]1CC2(CN1C(=O)CNC(=O)c1ccc(Oc3ccccc3)cc1)OCCO2 [Compound 16, (8S)—N-(3-Carbamimidoylpropyl)-7-{2-[(4-phenoxyphenyl)formamido]acetyl}-1,4-dioxa-7-azaspiro[4.4]nonane-8-carboxamide]	> 1000
NCCCCNC(=O)[C@@H]1CC2(CN1C(=O)CNC(=O)c1ccc(Oc3ccccc3)cc1)OCCO2 [Compound 25, (8S)—N-(4-Aminobutyl)-7-{2-[(4-phenoxyphenyl)formamido]acetyl}-1,4-dioxa-7-azaspiro[4.4]nonane-8-carboxamide]	> 1000
CC(=O)Nc1cccc(CNC(=O)[C@@H]2CC3(CN2C(=O)CNC(=O)c2ccc(Oc4ccccc4)cc2)OCCO3)c1 [Compound 20, (8S)—N-[(3-Acetamidophenyl)methyl]-7-{2-[(4-phenoxyphenyl)formamido]acetyl}-1,4-dioxa-7-azaspiro[4.4]nonane-8-carboxamide]	> 1000

Other lines, results leading:

IC50 [nM]	SMILES
< 100	C[C@@]12C[C@@H](C(=O)NCc3cc(C(=N)N)cs3)N(C(=O)CNC(=O)c3ccc(Oc4ccccc4)cc3)[C@@H]1C2 [Compound 8, (1R,3S,5R)—N-[(4-Carbamimidoylthiophen-2-yl)methyl]-5-methyl-2-{2-[(4-phenoxyphenyl)formamido]acetyl}-2-azabicyclo[3.1.0]hexane-3-carboxamide]
100 to 1000	N=C(N)c1csc(CNC(=O)[C@@H]2CCCN2C(=O)NNC(=O)c2ccc(Oc3ccccc3)cc2)c1 [Compound 36, (S)-N-((4-carbamimidoylthiophen-2-yl)methyl)-1-(2-(4-phenoxybenzoyl)hydrazine-1-carbonyl)pyrrolidine-2-carboxamide]
< 100	N=C(N)c1csc(CNC(=O)C2CC3(CCC3)CN2C(=O)CNC(=O)c2ccc(Oc3ccccc3)cc2)c1 (centres unmarked) [Compound 11, N-[(4-Carbamimidoylthiophen-2-yl)methyl]-6-{2-[(4-phenoxyphenyl)formamido]acetyl}-6-azaspiro[3.4]octane-7-carboxamide]
< 100	N=C(N)c1csc(CNC(=O)C2N(C(=O)CNC(=O)c3ccc(Oc4ccccc4)cc3)CC23CCC3)c1 (centres unmarked) [Compound 7, N-[(4-Carbamimidoylthiophen-2-yl)methyl]-2-{2-[(4-phenoxyphenyl)formamido]acetyl}-2-azaspiro[3.3]heptane-1-carboxamide]

Same assay, conditions: Table 2; C1s purified from human serum, 1.16 nM; substrate Z-L-Lys-SBzl; read-out: C1s Protease Activity

SMILES	IC50 [nM]
CCCCOc1ccc(C(=O)NCC(=O)N2CCC[C@H]2C(=O)NCc2cc(C(=N)N)cs2)cc1 [Compound 78, (S)-1-((4-butoxybenzoyl)glycyl)-N-((4-carbamimidoylthiophen-2-yl)methyl)pyrrolidine-2-carboxamide]	< 100
CCCc1cc(C(=O)NCC(=O)N2CCC[C@H]2C(=O)NCc2cc(C(=N)N)cs2)ccc1Oc1ccccc1 [Compound 41, (S)-N-((4-carbamimidoylthiophen-2-yl)methyl)-1-((4-phenoxy-3-propylbenzoyl)glycyl)pyrrolidine-2-carboxamide]	< 100
CC(c1ccccc1)c1ccc(C(=O)NCC(=O)N2CCC[C@H]2C(=O)NCc2cc(C(=N)N)cs2)cc1 (stereo partly drawn) [Compound 58, (2S)-N-((4-carbamimidoylthiophen-2-yl)methyl)-1-((4-(1-phenylethyl)benzoyl)glycyl)pyrrolidine-2-carboxamide]	< 100
CN(C)CCCC(=O)NCC(=O)N1CCC[C@H]1C(=O)NCc1cc(C(=N)N)cs1 [Compound 69, (S)-N-((4-carbamimidoylthiophen-2-yl)methyl)-1-((4-(dimethylamino)butanoyl)glycyl)pyrrolidine-2-carboxamide]	> 1000
Cc1cc(C(=O)NCC(=O)N2CC3(CCCC3)C[C@H]2C(=O)NCc2cc(C(=N)N)cs2)ccc1Oc1ccccc1 [Compound 46, (S)-N-((4-carbamimidoylthiophen-2-yl)methyl)-2-((3-methyl-4-phenoxybenzoyl)glycyl)-2-azaspiro[4.4]nonane-3-carboxamide]	< 100
CCCCCCCCC(=O)NCC(=O)N1CCC[C@H]1C(=O)NCc1cc(C(=N)N)cs1 [Compound 85, (S)-N-((4-carbamimidoylthiophen-2-yl)methyl)-1-(nonanoylglycyl)pyrrolidine-2-carboxamide]	< 100
CN(C)CCCCC(=O)NCC(=O)N1CCC[C@H]1C(=O)NCc1cc(C(=N)N)cs1 [Compound 70, (S)-N-((4-carbamimidoylthiophen-2-yl)methyl)-1-((5-(dimethylamino)pentanoyl)glycyl)pyrrolidine-2-carboxamide]	> 1000
N=C(N)c1csc(CNC(=O)[C@@H]2CCCN2C(=O)CNC(=O)CCCOc2ccccc2)c1 [Compound 67, (S)-N-((4-carbamimidoylthiophen-2-yl)methyl)-1-((4-phenoxybutanoyl)glycyl)pyrrolidine-2-carboxamide]	< 100
Cc1cc(C(=O)NCC(=O)N2CCC[C@H]2C(=O)NCc2cc(C(=N)N)cs2)ccc1Oc1ccccc1 [Compound 39, (S)-N-((4-carbamimidoylthiophen-2-yl)methyl)-1-((3-methyl-4-phenoxybenzoyl)glycyl)pyrrolidine-2-carboxamide]	< 100
N=C(N)c1csc(CNC(=O)[C@@H]2CCCN2C(=O)CNC(=O)c2ccc(Cc3ccccc3)cc2)c1 [Compound 56, (S)-1-((4-benzylbenzoyl)glycyl)-N-((4-carbamimidoylthiophen-2-yl)methyl)pyrrolidine-2-carboxamide]	< 100
CCCc1ccc(C(=O)NCC(=O)N2CCC[C@H]2C(=O)NCc2cc(C(=N)N)cs2)cc1 [Compound 72, (S)-N-((4-carbamimidoylthiophen-2-yl)methyl)-1-((4-propylbenzoyl)glycyl)pyrrolidine-2-carboxamide]	< 100

Now from value to molecule:

IC50 [nM]	SMILES
> 1000	CO[C@@H]1C[C@H](C(=O)NCc2cc(C(=N)N)cs2)[C@H](C(=O)CNC(=O)c2ccc(Oc3ccccc3)cc2)C1 [Compound 61, N-(2-((1R,2S,4S)-2-(((4-carbamimidoylthiophen-2-yl)methyl)carbamoyl)-4-methoxycyclopentyl)-2-oxoethyl)-4-phenoxybenzamide]
100 to 1000	N=C(N)c1csc(CNC(=O)[C@@H]2CCCN2C(=O)NNC(=O)c2ccc(Oc3ccccc3)cc2)c1 [Compound 59, (S)-N-((4-carbamimidoylthiophen-2-yl)methyl)-1-(2-(4-phenoxybenzoyl)hydrazine-1-carbonyl)pyrrolidine-2-carboxamide]

Same assay, conditions: Table 3; C1s purified from human serum, 1.16 nM; substrate Z-L-Lys-SBzl; read-out: C1s Protease Activity

IC50 [nM]	SMILES
> 1000	C[C@@]12C[C@@H]1N(C(=O)CNC(=O)c1ccc(Oc3ccccc3)cc1)[C@H](C(=O)NCc1cc(/C(N)=N/O)cs1)C2 [Compound 94, (1S,3S,5S)-N-((4-((Z)-N′-hydroxycarbamimidoyl)thiophen-2-yl)methyl)-5-methyl-2-((4-phenoxybenzoyl)glycyl)-2-azabicyclo[3.1.0]heptane-3-carboxamide]
< 100	N=C(N)c1csc(CNC(=O)C2C3CCC(C3)N2C(=O)CNC(=O)c2ccc(Oc3ccccc3)cc2)c1 (stereo in doubt) [Compound 96, (1R,3R,4S)-N-((4-carbamimidoylthiophen-2-yl)methyl)-2-((4-phenoxybenzoyl)glycyl)-2-azabicyclo[2.2.1]heptane-3-carboxamide]
< 100	Cc1ccccc1O[C@H]1C[C@@H](C(=O)NCc2cc(C(=N)N)cs2)N(C(=O)CNC(=O)c2ccc(Oc3ccccc3)cc2)C1 [Compound 105, (2S,4S)-N-((4-carbamimidoylthiophen-2-yl)methyl)-1-((4-phenoxybenzoyl)glycyl)-4-(o-tolyloxy)pyrrolidine-2-carboxamide]
< 100	N=C(N)c1csc(CNC(=O)[C@@H]2C[C@H](C(F)(F)F)CN2C(=O)CNC(=O)c2ccc(Oc3ccccc3)cc2)c1 [Compound 100, (2S,4S)-N-((4-carbamimidoylthiophen-2-yl)methyl)-1-((4-phenoxybenzoyl)glycyl)-4-(trifluoromethyl)pyrrolidine-2-carboxamide]
< 100	C[C@@]12C[C@@H]1N(C(=O)CNC(=O)c1ccc(Oc3ccc(S(F)(F)(F)(F)F)cc3)cc1)[C@H](C(=O)NCc1cc(C(=N)N)cs1)C2 [Compound 95, (1S,3S,5S)-N-((4-carbamimidoylthiophen-2-yl)methyl)-5-methyl-2-((4-(4-(pentafluoro-16-sulfaneyl)phenoxy)benzoyl)glycyl)-2-azabicyclo[3.1.0]hexane-3-carboxamide]
